target: T1, chimeric human H3 receptor (Homo sapiens, UniProt Q9Y5N1); assay: Chimeric human H3 receptor screening GTP binding assay (inhibition of histamine-stimulated GTP-gamma35S binding, Example 8); type: biochemical; settings: 1 h; assay of Example 8; symbol "!" in column headed Ki; read-out: percent inhibition of agonist-induced GTP-gammaS binding to H3
T1 construct: rat Galpha-i2 (Gnai2, rat); made in house; host or cells: Sf9 insect cells (baculovirus); P2 membranes
Outline: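 Sf9 membranes co-expressing chimeric human H3 receptor and heterotrimeric G-protein (35 μg protein) incubated 60 min at room temperature with 4 μM compound, 1 μM histamine and 125 pM GTP-gamma35S in pH 7.4 buffer with 10 μM GDP. Filter-bound radioactivity, nonspecific (10 μM GTP-gammaS) subtracted, reported as % inhibition of histamine signal.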

T1 sequence (Q9Y5N1 with tags, fused parts or gaps): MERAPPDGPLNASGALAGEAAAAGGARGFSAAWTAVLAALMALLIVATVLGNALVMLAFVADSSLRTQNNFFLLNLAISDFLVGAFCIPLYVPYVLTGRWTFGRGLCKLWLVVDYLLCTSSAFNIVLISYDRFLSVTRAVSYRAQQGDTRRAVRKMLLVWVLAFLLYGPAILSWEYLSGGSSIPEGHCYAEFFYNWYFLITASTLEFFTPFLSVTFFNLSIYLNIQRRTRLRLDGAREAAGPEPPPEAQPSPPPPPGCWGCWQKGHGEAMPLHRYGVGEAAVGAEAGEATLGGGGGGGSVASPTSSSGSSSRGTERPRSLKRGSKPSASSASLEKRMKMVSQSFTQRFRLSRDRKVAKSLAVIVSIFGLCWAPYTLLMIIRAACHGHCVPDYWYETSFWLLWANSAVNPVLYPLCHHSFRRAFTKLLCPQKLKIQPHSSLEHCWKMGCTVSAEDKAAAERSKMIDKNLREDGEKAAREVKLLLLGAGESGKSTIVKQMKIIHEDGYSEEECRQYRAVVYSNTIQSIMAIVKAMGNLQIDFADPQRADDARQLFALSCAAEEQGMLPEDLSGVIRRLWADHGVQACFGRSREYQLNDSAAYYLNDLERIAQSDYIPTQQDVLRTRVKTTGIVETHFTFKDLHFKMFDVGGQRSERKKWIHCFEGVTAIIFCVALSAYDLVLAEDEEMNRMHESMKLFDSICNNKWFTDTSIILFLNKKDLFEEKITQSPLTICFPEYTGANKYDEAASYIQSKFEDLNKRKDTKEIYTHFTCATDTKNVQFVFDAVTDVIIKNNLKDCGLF

Row | inhibition at 4 µM [%] | Structure (SMILES)
1 | ≥ 90 | O=C(COc1ccc(Cl)cc1Cl)N1CCc2cnc(N3CCN(C4CCC4)CC3)nc2CC1 [Compound 331, 2-(4-cyclobutylpiperazin-1-yl)-7-[(2,4-dichlorophenoxy)acetyl]-6,7,8,9-tetrahydro-5H-pyrimido[4,5-d]azepine]
2 | ≥ 90 | O=C(COc1ccc(Cl)c(Cl)c1)N1CCc2cnc(N3CCN(C4CCC4)CC3)nc2CC1 [Compound 332, 2-(4-cyclobutylpiperazin-1-yl)-7-[(3,4-dichlorophenoxy)acetyl]-6,7,8,9-tetrahydro-5H-pyrimido[4,5-d]azepine]
3 | ≥ 90 | Cc1ccc(OCC(=O)N2CCc3cnc(N4CCN(C5CCC5)CC4)nc3CC2)c(C)c1 [Compound 333, 2-(4-cyclobutylpiperazin-1-yl)-7-[(2,4-dimethylphenoxy)acetyl]-6,7,8,9-tetrahydro-5H-pyrimido[4,5-d]azepine]
4 | ≥ 90 | Cc1ccc(C)c(OCC(=O)N2CCc3cnc(N4CCN(C5CCC5)CC4)nc3CC2)c1 [Compound 334, 2-(4-cyclobutylpiperazin-1-yl)-7-[(2,5-dimethylphenoxy)acetyl]-6,7,8,9-tetrahydro-5H-pyrimido[4,5-d]azepine]
5 | ≥ 90 | O=C(COc1cccc2ccccc12)N1CCc2cnc(N3CCN(C4CCC4)CC3)nc2CC1 [Compound 335, 2-(4-cyclobutylpiperazin-1-yl)-7-[(1-naphthyloxy)acetyl]-6,7,8,9-tetrahydro-5H-pyrimido[4,5-d]azepine]
6 | ≥ 90 | O=C(COc1ccc2ccccc2c1)N1CCc2cnc(N3CCN(C4CCC4)CC3)nc2CC1 [Compound 336, 2-(4-cyclobutylpiperazin-1-yl)-7-[(2-naphthyloxy)acetyl]-6,7,8,9-tetrahydro-5H-pyrimido[4,5-d]azepine]
7 | ≥ 90 | CC(C)(Oc1ccc(Cl)cc1)C(=O)N1CCc2cnc(N3CCN(C4CCC4)CC3)nc2CC1 [Compound 337, 7-[2-(4-chlorophenoxy)-2-methylpropanoyl]-2-(4-cyclobutylpiperazin-1-yl)-6,7,8,9-tetrahydro-5H-pyrimido[4,5-d]azepine]
8 | ≥ 90 | CC(Oc1ccc(Cl)cc1Cl)C(=O)N1CCc2cnc(N3CCN(C4CCC4)CC3)nc2CC1 (stereo not drawn) [Compound 338, 2-(4-cyclobutylpiperazin-1-yl)-7-[2-(2,4-dichlorophenoxy)propanoyl]-6,7,8,9-tetrahydro-5H-pyrimido[4,5-d]azepine]
9 | ≥ 90 | CC(Oc1ccccc1)C(=O)N1CCc2cnc(N3CCN(C4CCC4)CC3)nc2CC1 (stereo not drawn) [Compound 339, 2-(4-cyclobutylpiperazin-1-yl)-7-(2-phenoxypropanoyl)-6,7,8,9-tetrahydro-5H-pyrimido[4,5-d]azepine]
10 | ≥ 90 | CC(Oc1cccc(Cl)c1)C(=O)N1CCc2cnc(N3CCN(C4CCC4)CC3)nc2CC1 (stereo not drawn) [Compound 340, 7-[2-(3-chlorophenoxy)propanoyl]-2-(4-cyclobutylpiperazin-1-yl)-6,7,8,9-tetrahydro-5H-pyrimido[4,5-d]azepine]
11 | ≥ 90 | O=C(C1COc2ccccc2O1)N1CCc2cnc(N3CCN(C4CCC4)CC3)nc2CC1 (stereo not drawn) [Compound 341, 2-(4-cyclobutylpiperazin-1-yl)-7-(2,3-dihydro-1,4-benzodioxin-2-ylcarbonyl)-6,7,8,9-tetrahydro-5H-pyrimido[4,5-d]azepine]
12 | ≥ 90 | CC(CC(=O)N1CCc2cnc(N3CCN(C4CCC4)CC3)nc2CC1)Sc1ccc(Cl)cc1 (stereo not drawn) [Compound 342, 7-{3-[(4-chlorophenyl)thio]butanoyl}-2-(4-cyclobutylpiperazin-1-yl)-6,7,8,9-tetrahydro-5H-pyrimido[4,5-d]azepine]
13 | ≥ 90 | CC(Oc1ccc(OC(F)(F)F)cc1)C(=O)N1CCc2cnc(N3CCN(C4CCC4)CC3)nc2CC1 (stereo not drawn) [Compound 343, 2-(4-cyclobutylpiperazin-1-yl)-7-{2-[4-(trifluoromethoxy)phenoxy]propanoyl}-6,7,8,9-tetrahydro-5H-pyrimido[4,5-d]azepine]
14 | ≥ 90 | CC(Oc1ccccc1Cl)C(=O)N1CCc2cnc(N3CCN(C4CCC4)CC3)nc2CC1 (stereo not drawn) [Compound 344, 7-[2-(2-chlorophenoxy)propanoyl]-2-(4-cyclobutylpiperazin-1-yl)-6,7,8,9-tetrahydro-5H-pyrimido[4,5-d]azepine]
15 | ≥ 90 | CC(Oc1ccc(Cl)cc1)C(=O)N1CCc2cnc(N3CCN(C4CCC4)CC3)nc2CC1 (stereo not drawn) [Compound 345, 7-[2-(4-chlorophenoxy)propanoyl]-2-(4-cyclobutylpiperazin-1-yl)-6,7,8,9-tetrahydro-5H-pyrimido[4,5-d]azepine]
16 | ≥ 90 | Cc1ccccc1OC(C)C(=O)N1CCc2cnc(N3CCN(C4CCC4)CC3)nc2CC1 (stereo not drawn) [Compound 346, 2-(4-cyclobutylpiperazin-1-yl)-7-[2-(2-methylphenoxy)propanoyl]-6,7,8,9-tetrahydro-5H-pyrimido[4,5-d]azepine]
17 | ≥ 90 | Cc1cccc(OC(C)C(=O)N2CCc3cnc(N4CCN(C5CCC5)CC4)nc3CC2)c1C (stereo not drawn) [Compound 347, 2-(4-cyclobutylpiperazin-1-yl)-7-[2-(2,3-dimethylphenoxy)propanoyl]-6,7,8,9-tetrahydro-5H-pyrimido[4,5-d]azepine]

Row | inhibition at 4 µM [%] | Structure (SMILES)
18 | ≥ 90 | CCC(C(=O)N1CCc2cnc(N3CCN(C4CCC4)CC3)nc2CC1)c1ccccc1 (stereo not drawn) [Compound 348, 2-(4-cyclobutylpiperazin-1-yl)-7-(2-phenylbutanoyl)-6,7,8,9-tetrahydro-5H-pyrimido[4,5-d]azepine]
19 | ≥ 90 | CC(C)C(C(=O)N1CCc2cnc(N3CCN(C4CCC4)CC3)nc2CC1)c1ccccc1 (stereo not drawn) [Compound 349, 2-(4-cyclobutylpiperazin-1-yl)-7-(3-methyl-2-phenylbutanoyl)-6,7,8,9-tetrahydro-5H-pyrimido[4,5-d]azepine]
20 | ≥ 90 | CCC(CC)(C(=O)N1CCc2cnc(N3CCN(C4CCC4)CC3)nc2CC1)c1ccccc1 [Compound 350, 2-(4-cyclobutylpiperazin-1-yl)-7-(2-ethyl-2-phenylbutanoyl)-6,7,8,9-tetrahydro-5H-pyrimido[4,5-d]azepine]
21 | ≥ 90 | Cc1ccccc1C(C(=O)N1CCc2cnc(N3CCN(C4CCC4)CC3)nc2CC1)C(C)C (stereo not drawn) [Compound 351, 2-(4-cyclobutylpiperazin-1-yl)-7-[3-methyl-2-(2-methylphenyl)butanoyl]-6,7,8,9-tetrahydro-5H-pyrimido[4,5-d]azepine]
22 | ≥ 90 | CCC(C(=O)N1CCc2cnc(N3CCN(C4CCC4)CC3)nc2CC1)c1ccc(OC)cc1 (stereo not drawn) [Compound 352, 2-(4-cyclobutylpiperazin-1-yl)-7-[2-(4-methoxyphenyl)butanoyl]-6,7,8,9-tetrahydro-5H-pyrimido[4,5-d]azepine]
23 | ≥ 90 | O=C(C(c1ccccc1)C1CCCC1)N1CCc2cnc(N3CCN(C4CCC4)CC3)nc2CC1 (stereo not drawn) [Compound 353, 2-(4-cyclobutylpiperazin-1-yl)-7-[cyclopentyl(phenyl)acetyl]-6,7,8,9-tetrahydro-5H-pyrimido[4,5-d]azepine]
24 | ≥ 90 | O=C(C(c1ccccc1)c1ccccc1)N1CCc2cnc(N3CCN(C4CCC4)CC3)nc2CC1 [Compound 354, 2-(4-cyclobutylpiperazin-1-yl)-7-(diphenylacetyl)-6,7,8,9-tetrahydro-5H-pyrimido[4,5-d]azepine]
25 | ≥ 90 | O=C(C(c1ccccc1)C1CCCCC1)N1CCc2cnc(N3CCN(C4CCC4)CC3)nc2CC1 (stereo not drawn) [Compound 355, 2-(4-cyclobutylpiperazin-1-yl)-7-[cyclohexyl(phenyl)acetyl]-6,7,8,9-tetrahydro-5H-pyrimido[4,5-d]azepine]
26 | ≥ 90 | Cc1ccc(C(C(=O)N2CCc3cnc(N4CCN(C5CCC5)CC4)nc3CC2)c2ccccc2)cc1 (stereo not drawn) [Compound 356, 2-(4-cyclobutylpiperazin-1-yl)-7-[(4-methylphenyl)(phenyl)acetyl]-6,7,8,9-tetrahydro-5H-pyrimido[4,5-d]azepine]
27 | ≥ 90 | CC(C(=O)N1CCc2cnc(N3CCN(C4CCC4)CC3)nc2CC1)(c1ccccc1)c1ccccc1 [Compound 357, 2-(4-cyclobutylpiperazin-1-yl)-7-(2,2-diphenylpropanoyl)-6,7,8,9-tetrahydro-5H-pyrimido[4,5-d]azepine]
28 | ≥ 90 | O=C(C1c2ccccc2Oc2ccccc21)N1CCc2cnc(N3CCN(C4CCC4)CC3)nc2CC1 [Compound 358, 2-(4-cyclobutylpiperazin-1-yl)-7-(9H-xanthen-9-ylcarbonyl)-6,7,8,9-tetrahydro-5H-pyrimido[4,5-d]azepine]
29 | ≥ 90 | Cc1cc(C)cc(C(=O)N2CCc3cnc(N4CCN(C5CCC5)CC4)nc3CC2)c1 [Compound 359, 2-(4-cyclobutylpiperazin-1-yl)-7-(3,5-dimethylbenzoyl)-6,7,8,9-tetrahydro-5H-pyrimido[4,5-d]azepine]
30 | ≥ 90 | Cc1ccc(C(=O)N2CCc3cnc(N4CCN(C5CCC5)CC4)nc3CC2)cc1C [Compound 360, 2-(4-cyclobutylpiperazin-1-yl)-7-(3,4-dimethylbenzoyl)-6,7,8,9-tetrahydro-5H-pyrimido[4,5-d]azepine]
31 | ≥ 90 | O=C(c1ccc2ccccc2c1)N1CCc2cnc(N3CCN(C4CCC4)CC3)nc2CC1 [Compound 361, 2-(4-cyclobutylpiperazin-1-yl)-7-(2-naphthoyl)-6,7,8,9-tetrahydro-5H-pyrimido[4,5-d]azepine]
32 | ≥ 90 | CCCc1ccc(C(=O)N2CCc3cnc(N4CCN(C5CCC5)CC4)nc3CC2)cc1 [Compound 362, 2-(4-cyclobutylpiperazin-1-yl)-7-(4-propylbenzoyl)-6,7,8,9-tetrahydro-5H-pyrimido[4,5-d]azepine]
33 | ≥ 90 | CCCCc1ccc(C(=O)N2CCc3cnc(N4CCN(C5CCC5)CC4)nc3CC2)cc1 [Compound 363, 7-(4-butylbenzoyl)-2-(4-cyclobutylpiperazin-1-yl)-6,7,8,9-tetrahydro-5H-pyrimido[4,5-d]azepine]

— US20080051387A1, “TETRAHYDROPYRIDO[3,4-D]PYRIMIDINES AND RELATED ANALOGUES” (priority 2006, published 2008)
